Laboratory results as given in patent publication US12642771B2, “Compositions comprising PGI2-receptor agonists and processes for the preparation thereof” (Arena Pharmaceuticals, Inc., priority 2017, dated 2026).

Experiments:
[1] = Release (dissolution) profile of capsules, USP Apparatus 2 (paddle) at 50 rpm, 500 mL aqueous sodium phosphate 0.05 M, pH 6.8; assay type: physicochemical; settings: for Release rate (percentage of Compound 1 released): Table 3b; for mean value (n =4) of % of Compound 1 released: Table 3g-1, Storage Time = 0; for mean value (n =4) of % of Compound 1 released / mean value (n = 41) of % of Compound 1 released: size 4 capsule 0.5 mg Compound 1, Poloxamer 188:food grade GMS 70:30; for mean value (n = 41) of % of Compound 1 released: Table 3g-2 first line (title: Storage Time = 2 weeks; values equal Table 3g-1)
From the text: USP Apparatus 2 (Paddle Apparatus) is described, for example, in the United States Pharmacopeial Convention, Feb. 1, 2012, Chapter <711> (“Dissolution”), incorporated by reference herein in its entirety. See http://www.usp.org/sites/default/files/usp_pdf/EN/USPNF/revisions/m99470-gc_711.pdf. The assembly from Apparatus 1 is used, except that a paddle formed from a blade and a shaft is used as the stirring element. The shaft is positioned so that its axis is not more than 2 mm from the vertical axis of the vessel at any point and rotates smoothly without significant wobble that could affect the results. The vertical center line of the blade passes through the axis of the shaft so that the bottom of the blade is flush with the bottom of the shaft. A distance of 25±2 mm between the bottom of the blade and the inside bottom of the vessel is maintained during the test. The metallic or suitably inert, rigid blade and shaft comprise a single entity. A suitable two-part detachable design may be used provided the assembly remains firmly engaged during the test. The paddle blade and shaft may be coated with a suitable coating so as to make them inert. The dosage unit is allowed to sink to the bottom of the vessel before rotation of the blade is started. A small, loose piece of nonreactive material, such as not more than a few turns of wire helix, may be attached to dosage units that would otherwise float. Other validated sinker devices may be used.
Unless otherwise specified, the release profiles for capsules were measured using USP Apparatus 2 (paddle).
All release profiles disclosed in Tables 3c-3p were measured with USP Apparatus 2 (paddle) at 50 rpm in 500 mL of aqueous sodium phosphate at a concentration of 0.05 M (pH=6.8). The values in a given table relate to capsules obtained from the same batch. Values shown represent mean values over a number of dissolution tests (“n” in each table) in each case.

[2] = Plasma pharmacokinetics of Compound 1 stated in background and description (initial clinical studies); assay type: in vivo; settings: immediate-release capsule formulation

Compound: O=C(O)COC[C@H]1CC[C@H](COC(=O)N(c2ccccc2)c2ccc(Cl)cc2)CC1 [Compound 1, 2-(((1r,4r)-4-(((4-chlorophenyl)(phenyl)carbamoyloxy)methyl)cyclohexyl)methoxy)acetic acid]
- change of release rate after storage ([1]; 0.04 mg Compound 1 in Gelucire 50/13, storage at 40° C. and 75% RH for two weeks (FIG. 5)): rapid increase in release rate
- Release rate (percentage of Compound 1 released) ([1]; capsule 0.04 mg Compound 1, Poloxamer 188:food grade GMS 50:50, 1 wk storage (40° C.), 30 min): 11.1%
- Release rate (percentage of Compound 1 released) ([1]; capsule 0.04 mg Compound 1, Poloxamer 188:food grade GMS 50:50, 1 wk storage (40° C.), 60 min): 22.6%
- Release rate (percentage of Compound 1 released) ([1]; capsule 0.04 mg Compound 1, Poloxamer 188:food grade GMS 50:50, 1 wk storage (40° C.), 120 min): 40.1%
- Release rate (percentage of Compound 1 released) ([1]; capsule 0.04 mg Compound 1, Poloxamer 188:food grade GMS 50:50, 1 wk storage (40° C.), 180 min): 59.7%
- Release rate (percentage of Compound 1 released) ([1]; capsule 0.04 mg Compound 1, Poloxamer 188:food grade GMS 50:50, 1 wk storage (40° C.), 240 min): 71.8%
- Release rate (percentage of Compound 1 released) ([1]; capsule 0.04 mg Compound 1, Poloxamer 188:food grade GMS 50:50, 1 wk storage (40° C.), 360 min): 88.4%
- Release rate (percentage of Compound 1 released) ([1]; capsule 0.04 mg Compound 1, Poloxamer 188:food grade GMS 50:50, 1 wk storage (40° C.), 480 min): 92.2%
- Release rate (percentage of Compound 1 released) ([1]; capsule 0.04 mg Compound 1, Poloxamer 188:food grade GMS 50:50, 1 wk storage (40° C.), 600 min): 96.7%
- Release rate (percentage of Compound 1 released) ([1]; capsule 0.04 mg Compound 1, Poloxamer 188:food grade GMS 50:50, 1 wk storage (40° C.), 720 min): 95.3%
- Release rate (percentage of Compound 1 released) ([1]; capsule 0.04 mg Compound 1, Poloxamer 188:food grade GMS 50:50, 1 wk storage (40° C.), 735 min): 96.1%
- Release rate (percentage of Compound 1 released) ([1]; capsule 0.04 mg Compound 1, Poloxamer 188:food grade GMS 50:50, 2 wks storage (40° C.), 30 min): 10.8%
- Release rate (percentage of Compound 1 released) ([1]; capsule 0.04 mg Compound 1, Poloxamer 188:food grade GMS 50:50, 2 wks storage (40° C.), 60 min): 18.3%
- Release rate (percentage of Compound 1 released) ([1]; capsule 0.04 mg Compound 1, Poloxamer 188:food grade GMS 50:50, 2 wks storage (40° C.), 120 min): 36.8%
- Release rate (percentage of Compound 1 released) ([1]; capsule 0.04 mg Compound 1, Poloxamer 188:food grade GMS 50:50, 2 wks storage (40° C.), 180 min): 52.9%
- Release rate (percentage of Compound 1 released) ([1]; capsule 0.04 mg Compound 1, Poloxamer 188:food grade GMS 50:50, 2 wks storage (40° C.), 240 min): 67.4%
- Release rate (percentage of Compound 1 released) ([1]; capsule 0.04 mg Compound 1, Poloxamer 188:food grade GMS 50:50, 2 wks storage (40° C.), 360 min): 83.3%
- Release rate (percentage of Compound 1 released) ([1]; capsule 0.04 mg Compound 1, Poloxamer 188:food grade GMS 50:50, 2 wks storage (40° C.), 480 min): 90.3%
- Release rate (percentage of Compound 1 released) ([1]; capsule 0.04 mg Compound 1, Poloxamer 188:food grade GMS 50:50, 2 wks storage (40° C.), 600 min): 93.8%
- Release rate (percentage of Compound 1 released) ([1]; capsule 0.04 mg Compound 1, Poloxamer 188:food grade GMS 50:50, 2 wks storage (40° C.), 720 min): 93.7%
- Release rate (percentage of Compound 1 released) ([1]; capsule 0.04 mg Compound 1, Poloxamer 188:food grade GMS 50:50, 2 wks storage (40° C.), 735 min): 94.3%
- Release rate (percentage of Compound 1 released) ([1]; capsule 0.04 mg Compound 1, Poloxamer 188:food grade GMS 50:50, 4 wks storage (40° C.), 30 min): 7.3%
- Release rate (percentage of Compound 1 released) ([1]; capsule 0.04 mg Compound 1, Poloxamer 188:food grade GMS 50:50, 4 wks storage (40° C.), 60 min): 17.7%
- Release rate (percentage of Compound 1 released) ([1]; capsule 0.04 mg Compound 1, Poloxamer 188:food grade GMS 50:50, 4 wks storage (40° C.), 120 min): 37.4%
- Release rate (percentage of Compound 1 released) ([1]; capsule 0.04 mg Compound 1, Poloxamer 188:food grade GMS 50:50, 4 wks storage (40° C.), 180 min): 54.6%
- Release rate (percentage of Compound 1 released) ([1]; capsule 0.04 mg Compound 1, Poloxamer 188:food grade GMS 50:50, 4 wks storage (40° C.), 240 min): 70.3%
- Release rate (percentage of Compound 1 released) ([1]; capsule 0.04 mg Compound 1, Poloxamer 188:food grade GMS 50:50, 4 wks storage (40° C.), 360 min): 87.5%
- Release rate (percentage of Compound 1 released) ([1]; capsule 0.04 mg Compound 1, Poloxamer 188:food grade GMS 50:50, 4 wks storage (40° C.), 480 min): 90.9%
- Release rate (percentage of Compound 1 released) ([1]; capsule 0.04 mg Compound 1, Poloxamer 188:food grade GMS 50:50, 4 wks storage (40° C.), 600 min): 93.2%
- Release rate (percentage of Compound 1 released) ([1]; capsule 0.04 mg Compound 1, Poloxamer 188:food grade GMS 50:50, 4 wks storage (40° C.), 720 min): 95.0%
- Release rate (percentage of Compound 1 released) ([1]; capsule 0.04 mg Compound 1, Poloxamer 188:food grade GMS 50:50, 4 wks storage (40° C.), 735 min): 94.3%
- Release rate (percentage of Compound 1 released) ([1]; capsule 0.04 mg Compound 1, Poloxamer 188:food grade GMS 50:50, 18 hrs curing (50° C.), 30 min): 14.3%
- Release rate (percentage of Compound 1 released) ([1]; capsule 0.04 mg Compound 1, Poloxamer 188:food grade GMS 50:50, 18 hrs curing (50° C.), 60 min): 21.8%
- Release rate (percentage of Compound 1 released) ([1]; capsule 0.04 mg Compound 1, Poloxamer 188:food grade GMS 50:50, 18 hrs curing (50° C.), 120 min): 39.9%
- Release rate (percentage of Compound 1 released) ([1]; capsule 0.04 mg Compound 1, Poloxamer 188:food grade GMS 50:50, 18 hrs curing (50° C.), 180 min): 56.3%
- Release rate (percentage of Compound 1 released) ([1]; capsule 0.04 mg Compound 1, Poloxamer 188:food grade GMS 50:50, 18 hrs curing (50° C.), 240 min): 72.6%
- Release rate (percentage of Compound 1 released) ([1]; capsule 0.04 mg Compound 1, Poloxamer 188:food grade GMS 50:50, 18 hrs curing (50° C.), 360 min): 89.2%
- Release rate (percentage of Compound 1 released) ([1]; capsule 0.04 mg Compound 1, Poloxamer 188:food grade GMS 50:50, 18 hrs curing (50° C.), 480 min): 93.5%
- Release rate (percentage of Compound 1 released) ([1]; capsule 0.04 mg Compound 1, Poloxamer 188:food grade GMS 50:50, 18 hrs curing (50° C.), 600 min): 95.7%
- Release rate (percentage of Compound 1 released) ([1]; capsule 0.04 mg Compound 1, Poloxamer 188:food grade GMS 50:50, 18 hrs curing (50° C.), 720 min): 96.9%
- Release rate (percentage of Compound 1 released) ([1]; capsule 0.04 mg Compound 1, Poloxamer 188:food grade GMS 50:50, 18 hrs curing (50° C.), 735 min): 95.6%
- Release rate (percentage of Compound 1 released) ([1]; capsule 0.04 mg Compound 1, Poloxamer 188:food grade GMS 50:50, T = 0 (pre-curing), 30 min): 11.0%
- Release rate (percentage of Compound 1 released) ([1]; capsule 0.04 mg Compound 1, Poloxamer 188:food grade GMS 50:50, T = 0 (pre-curing), 60 min): 18.3%
- Release rate (percentage of Compound 1 released) ([1]; capsule 0.04 mg Compound 1, Poloxamer 188:food grade GMS 50:50, T = 0 (pre-curing), 120 min): 30.1%
- Release rate (percentage of Compound 1 released) ([1]; capsule 0.04 mg Compound 1, Poloxamer 188:food grade GMS 50:50, T = 0 (pre-curing), 180 min): 39.6%
- Release rate (percentage of Compound 1 released) ([1]; capsule 0.04 mg Compound 1, Poloxamer 188:food grade GMS 50:50, T = 0 (pre-curing), 240 min): 48.8%
- Release rate (percentage of Compound 1 released) ([1]; capsule 0.04 mg Compound 1, Poloxamer 188:food grade GMS 50:50, T = 0 (pre-curing), 360 min): 64.1%
- Release rate (percentage of Compound 1 released) ([1]; capsule 0.04 mg Compound 1, Poloxamer 188:food grade GMS 50:50, T = 0 (pre-curing), 480 min): 72.7%
- Release rate (percentage of Compound 1 released) ([1]; capsule 0.04 mg Compound 1, Poloxamer 188:food grade GMS 50:50, T = 0 (pre-curing), 600 min): 79.8%
- Release rate (percentage of Compound 1 released) ([1]; capsule 0.04 mg Compound 1, Poloxamer 188:food grade GMS 50:50, T = 0 (pre-curing), 720 min): 83.1%
- Release rate (percentage of Compound 1 released) ([1]; capsule 0.04 mg Compound 1, Poloxamer 188:food grade GMS 50:50, T = 0 (pre-curing), 735 min): 84.6%
- mean value (n =4) of % of Compound 1 released ([1]; 30 min): 33.0%
- mean value (n =4) of % of Compound 1 released ([1]; 45 min): 64.2%
- mean value (n =4) of % of Compound 1 released ([1]; 60 min): 86.0%
- mean value (n = 41) of % of Compound 1 released ([1]; 30 min): 33.0%
- mean value (n = 41) of % of Compound 1 released ([1]; 45 min): 64.2%
- mean value (n = 41) of % of Compound 1 released ([1]; 60 min): 86.0%
- release profile after curing and storage ([1]; capsule 0.04 mg Compound 1, Poloxamer 188:food grade GMS 50:50, cured 18 hours, one, two and four weeks post-curing (FIG. 6)): remained substantially the same
- stabilisation of release profile by curing ([1]; capsule with research grade GMS (lower monoester content) instead of food grade GMS): curing was not as effective in stabilizing the release profile
- release rate relative to immediate-release composition ([1]; capsules 0.5 mg Compound 1, Poloxamer 188:food grade GMS 70:30, 50:50 and 30:70 (FIGS. 8-10)): slower rate than the immediate-release composition
- Cmax and peak-trough fluctuation [2]: high Cmax and peak-trough fluctuation
